Laboratory results from patent publication US20180044686A1, “TOOLS AND METHODS FOR USING CELL DIVISION LOCI TO CONTROL PROLIFERATION OF CELLS” (Sinai Health System, priority 2015, published 2018).

How the values were obtained:
[1] = tested on: Eef2-EARC ES cells; assay: Targeted cell growth of Eef2-EARC ES cells; type: cell-based, mouse; details: withdrawal of doxycycline
Protocol: (§1) Eef2 homozygously-targeted cells were trypsinized and plated on gelatinized 24 well plates at a density of 5×10^4 cells per well. Starting one day after plating, cells were exposed to different Dox concentrations (1 μg/ml, 0.5 μg/ml, 0.05 μg/ml and 0 μg/ml), the plate was analyzed in a IncucyteZoom system (Essen Bioscience) by taking pictures every two hours for 3-4 days and measuring confluence.

[2] = tested on: Birc5-EARC ES cells; assay: Targeted cell growth of Birc5-EARC ES cells; type: cell-based, mouse; details: withdrawal of doxycycline
Protocol: as §1, with “Birc5” for “Eef2”

[3] = tested on: Top2a-EARC ES cells; assay: Targeted cell growth of Top2a-EARC ES cells; type: cell-based, mouse; details: withdrawal of doxycycline
Protocol: as §1, with “Top2a” for “Eef2”, “confluency.” for “confluence.”

[4] = tested on: Cenpa-EARC ES cells; assay: Targeted cell growth of Cenpa-EARC ES cells; type: cell-based, mouse; details: withdrawal of doxycycline
Protocol: as §1, with “Cenpa” for “Eef2”, “confluency.” for “confluence.”

[5] = tested on: homozygous Cdk1 dox-bridge knock-in mouse ES cells; assay: Targeted cell growth of Cdk1 dox-bridge (EARC) ES cells; type: cell-based; details: withdrawal of doxycycline
Protocol: F3-bridge targeted cells were trypsinized and plated on gelatinized 24 well plates at a density of 5×10^4 cells per well. Starting one day after plating, cell counting was performed by trypsinizing 3 wells for each condition and counting live cells using a Countess automated cell counter (Life Technologies). Doxycycline was removed or reduced to 0.05 ng/ml 2 days after plating and live cells were counted every day up to 18 days in the different conditions.

[6] = tested on: mixed culture of non-dividing neurons and dividing NEPs derived from Cdk1+/+,+/alink human CA1 ES cells; assay: Neuronal progenitor vs. neuron killing assay; type: cell-based; details: GCV 10 uM every other day for 20 days
Protocol: Cdk1^+/+, +/alink human CA1 ES cells were differentiated to neural epithelial progenitor cells (NEPs). NEPs were subsequently cultured under conditions for differentiation into neurons, thereby generating a mixed culture of non-dividing neurons and dividing NEPs, which were characterized by immunostaining of DAPI, Ki67 and Sox2. GCV (10 uM) was provided to the mixed culture every other day for 20 days. Then, GCV was withdrawn from culture for 4 days before cells were fixed by 4% PFA. Fixed cells were immunostained for proliferation marker Ki67 to check whether all the leftover cells have exited cell cycle, and mature neutron marker beta-TublinIII.

[7] = tested on: ALINK-modified MMTV-PyMT-transformed mammary epithelial tumorigenic cell grafts; assay: Mammary gland tumor assay; type: in vivo, mouse; details: B6N hosts; GCV 50 mg/kg every other day i.p.
Excerpt: Chimeras of Cdk1^+/+, +/loxp-alink mouse C2 ES and CD-1 backgrounds were generated through diploid aggregation, and then were bred with B6N WT mice to generate Cdk1^+/+, +/loxp-alink mice through germline transmission. Cdk1^+/+, +/loxp-alink mice were bred with Ella-Cre mice to generate Cdk1^+/+, +/alink mice. Cdk1^+/+, +/alink mice were then bred with MMTV-PyMT mice (Guy et al., 1992) to get double-positive pups with mammary gland tumors and ALINK modification. Mammary gland tumors with fail-safe modification were isolated, cut into 1 mm^3 pieces, and transplanted into the 4th mammary gland of wild-type B6N females. GCV/PBS treatment was injected every other day at the dosage of 50 mg/kg into the peritoneal cavity with different treatment durations. Mammary gland tumor size was measured by calipers and calculated with the formula V=Length*Width*Height*π/6.

[8] = tested on: subcutaneous teratomas comprising ALINK-modified mouse C2 cells; assay: Teratoma assay, ALINK-modified mouse C2 ES cells; type: in vivo
Protocol: (§2) Matrigel Matrix High Concentration (Corning) was diluted 1:3 with cold DMEM media on ice. 5-10×10^6 cells were suspended into 100 ul of 66% DMEM+33% Matrigel media and injected subcutaneously into either or both dorsal flanks of B6N mice (for mouse C2 ES cells) and NOD-SCID mice (for human ES cells). Teratomas formed 2-4 weeks after injection. Teratoma size was measured by caliper, and teratoma volume was calculated using the formula V=(L×W×H)π/6. GCV/PBS treatment was performed by daily injection with 50 mg/kg into the peritoneal cavity with different treatment durations. At the end of treatment, mice were sacrificed and tumors were dissected and fixed in 4% paraformaldehyde for histology analysis.

[9] = tested on: subcutaneous teratomas comprising ALINK-modified H1 ES cells; assay: Teratoma assay, ALINK-modified human ES cells; type: in vivo, mouse (human ES cell graft); details: NOD scid gamma mouse hosts; two rounds of GCV (15 days + 40 days)
Protocol: as §2

[10] = cited from earlier work

C[C@H]1c2cccc(O)c2C(=O)C2=C(O)[C@]3(O)C(=O)C(C(N)=O)=C(O)[C@@H](N(C)C)[C@@H]3[C@@H](O)[C@@H]21 [doxycycline]
time to complete elimination of mitotically active ES cells [1]: ≤ 4 days | time to complete elimination of mitotically active ES cells [2]: ≤ 4 days | time to complete elimination of mitotically active ES cells [3]: ≤ 4 days | time to complete elimination of mitotically active ES cells [4]: ≤ 4 days | time to complete elimination of mitotically active ES cells [5]: ≤ 5 days

Nc1nc(O)c2ncn(COC(CO)CO)c2n1 [GCV, ganciclovir]
killing of dividing NEPs [6]: killed the dividing NEPs | killing of non-dividing neurons [6]: did not kill the non-dividing neurons | mammary gland tumor dormancy [7]: able to render the mammary gland tumors to dormancy | effect on quiescent cells of the teratoma ([8]; GCV 50 mg/kg daily i.p.): did not affect quiescent cells of the teratoma | teratoma growth ([8]; GCV 50 mg/kg daily i.p.): stops teratoma growth | teratoma dormancy ([8]; brief (3 week) GCV treatment period): sufficient to render the teratomas dormant | teratoma dormancy [9]: rendered the teratomas to dormancy

Ppan
CS score ([10]; CRISPR score average provided in Wang et al., 2015, score of the gene locus (predicted CDL)): −1.62

Bms1
CS score (CRISPR score average provided in Wang et al., 2015) ([10]; gene locus (predicted CDL), CRISPR score average): −1.36
